Literature values as cited in US7205335B2, “Preparation of cis-fused 3,3a,8,12b-tetrahydro-2H-dibenzo[3,4:6,7]cyclohepta[1,2-b]furan derivatives” (priority 2001, dated 2007).

Conditions: dose of 300 mg/kg

CNCC1CC2c3ccccc3Cc3ccccc3C2O1.O=C(O)C(=O)O (racemic) [(±)-3,3a,8,12b-tetrahydro-N-methyl-2H-dibenzo[3,4:6,7]-cyclohepta-[1,2-b]furan-2-methanamine oxalic acid]
activity as an antidepressant: inactive
